{"source": "paper PMC6263107", "about": "(Journal of Enzyme Inhibition and Medicinal Chemistry, 2018)", "key": {"[1]": {"test_system": "SH-SY5Y cells", "test": "Neuroprotection against Aβ1–40 peptide-induced cell death (MTT)", "type": "cell-based, human", "conditions": "for Aβ1–40 (%) neuroprotection: Aβ 1–40 30 µM", "method": "(§1) SH-SY5Y cell culture and treatment with compounds 2b–d and 2f. The cultures of human SH-SY5Y neuroblastoma cells kept under a CO2/air (5%/95%) humidified atmosphere at 37 °C for 24 h were treated with 100 µl of the test compounds or DMSO (0.1%) in DMEM/F12 (1:1) medium supplemented with 1% fetal bovine serum, 1X non-essential amino acids, 100 units/ml penicillin and 10 mg/ml streptomycin. Treatment medium was renewed every day for up to 48 h of treatment. MTT assay was then performed.\n(§2) SH-SY5Y cells were seeded in 96-well culture plates at a density of 8 × 10^4 cells per well in DMEM/F12 (1:1) medium supplemented with 10% fetal bovine serum, 1X non-essential amino acids, 100 units/mL penicillin and 10 mg/mL streptomycin (Dutscher, France). After 24 h of incubation, the cultures were treated with 100 µl of the test compounds or DMSO (0.1%) in the same medium. Following 24 h, the cells were co-incubated with oligomycin A (10 µM)/rotenone (30 µM) (Sigma, France) or Aβ 1–40 (30 µM) with or without the tested compounds 2b–d and 2f at nontoxic concentrations against cells for an additional period of 24 h. MTT assay was then performed to determine the % of cell viability.\n(§3) The ability to prevent the human neuroblastoma cell line SH-SY5Y cell death induced by toxic insults such as Αβ 1–40, implicated in ROS production and apoptosis-related signalling pathways, and oligomycin/rotenone (O/R)[39], was then assayed to determine the neuroprotective capacity of the four less hepatotoxic KTs 2b–d and 2f at nontoxic concentration against SH-SY5Y 3 and 10 µM, using melatonin and KA as reference molecules. For the evaluation of the neuroprotective effect, the cytotoxicity of O/R (10 µM/30 µM) on SH-SY5Y cell viability was determined as well as the toxicity of the selected KTs 2b–d and 2f at."}, "[2]": {"test": "Oxygen radical absorbance capacity assay (ORAC-FL)", "conditions": "for ORAC: ORAC-FL, Trolox equivalents", "method": "The antioxidant activity of KTs was determined using the ORAC-FL method described by Dávalos et al.[30] using fluorescein as a fluorescent probe with minor modification. Briefly, fluorescein and antioxidant were incubated in a black 96-well microplate (Nunc) for 15 min at 37 °C. The 2,2’-azobis(amidinopropane) dihydrochloride (AAPH) was then added quickly using the built-in injector of Varioskan Flash plate reader (Thermo Scientific).\nResults are expressed in the Trolox equivalents (TE) unit in relation to radical scavenging properties of Trolox."}, "[3]": {"test_system": "SH-SY5Y cells", "test": "Neuroprotection against Aβ1–40 peptide-induced cell death (MTT)", "type": "cell-based, human", "conditions": "compound 1 µM; Aβ 1–40 30 µM"}, "[4]": {"test_system": "SH-SY5Y cells", "test": "Neuroprotection against oligomycin/rotenone-induced cell death (MTT)", "type": "cell-based, human", "conditions": "O 10 µM / R 30 µM", "method": "as §1, §2, §3"}, "[5]": {"test_system": "SH-SY5Y cells", "test": "Neuroprotection against oligomycin/rotenone-induced cell death (MTT)", "type": "cell-based, human", "conditions": "compound 1 µM; O 10 µM / R 30 µM"}, "[6]": {"target": "T1, hAChE (Homo sapiens, UniProt P22303)", "T1 construct": "10 µl of cholinesterase obtained from human erythrocyte hemolyzate, out of blood samples; from tissue; host or cells: human erythrocyte hemolysate from blood samples", "T1 sequence (P22303 32-617 isoform P22303-2 limits assumed)": "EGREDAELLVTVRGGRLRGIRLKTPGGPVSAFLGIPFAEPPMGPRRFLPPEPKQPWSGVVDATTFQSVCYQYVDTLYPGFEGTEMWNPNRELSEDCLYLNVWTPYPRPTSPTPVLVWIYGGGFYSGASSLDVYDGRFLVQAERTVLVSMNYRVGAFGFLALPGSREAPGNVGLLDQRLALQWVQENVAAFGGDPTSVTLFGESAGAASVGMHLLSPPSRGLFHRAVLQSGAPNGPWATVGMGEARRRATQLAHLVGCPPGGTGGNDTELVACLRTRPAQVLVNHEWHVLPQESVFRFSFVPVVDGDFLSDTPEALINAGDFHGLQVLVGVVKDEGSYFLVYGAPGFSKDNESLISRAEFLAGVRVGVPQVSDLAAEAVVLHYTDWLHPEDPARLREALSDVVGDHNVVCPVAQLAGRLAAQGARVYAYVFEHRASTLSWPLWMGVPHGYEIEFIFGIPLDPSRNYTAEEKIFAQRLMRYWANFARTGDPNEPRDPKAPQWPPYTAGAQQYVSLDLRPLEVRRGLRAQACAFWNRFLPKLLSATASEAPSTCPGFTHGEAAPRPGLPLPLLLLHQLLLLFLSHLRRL", "test": "biochemical", "conditions": "mean ± SEM", "method": "This blend was preincubated for 5 min and 20 µl of 0.01 M substrate (ATCh or BTCh) was added to initiate the reaction. […] The IC50 values are expressed as a mean ± SEM.\nNext, as planned at the beginning of the project, the analysis of the antioxidant capacity of KT 2a–d, 2f–h, and 2l was carried out."}, "[7]": {"test": "in vitro", "type": "cell-based", "conditions": "human, HepG2 cells, percent of cell viability vs DMSO-treated control, read-out: HepG2 cell viability", "method": "(§4) The culture medium was refreshed after 24 h of incubation and 100 µl of six different concentrations (1–1000 µM) of test compounds or DMSO (0.1%) were then added. The cell viability was monitored by colourimetric assay with 3-[4,5-dimethylthiazol-2-yl]-2,5-diphenyl-tetrazolium bromide (MTT).\n(§5) In this sense, all new KTs were submitted to the in vitro cell viability test (MTT assay) using human hepatocellular carcinoma cell line (HepG2)[26], as the most accepted probe to evaluate hepatotoxic effects. For this experiment, six different concentrations from 1 to 1000 µM were used."}, "[8]": {"test_system": "HepG2 cells", "test": "in vitro", "type": "cell-based", "conditions": "at 1000 µM", "method": "as §4, §5"}, "[9]": {"target": "T2, eqBuChE (Equus caballus, UniProt P81908)", "T2 construct": "serum horse BuChE (eqBuChE); from tissue; host or cells: horse serum", "T2 sequence (P81908 whole entry)": "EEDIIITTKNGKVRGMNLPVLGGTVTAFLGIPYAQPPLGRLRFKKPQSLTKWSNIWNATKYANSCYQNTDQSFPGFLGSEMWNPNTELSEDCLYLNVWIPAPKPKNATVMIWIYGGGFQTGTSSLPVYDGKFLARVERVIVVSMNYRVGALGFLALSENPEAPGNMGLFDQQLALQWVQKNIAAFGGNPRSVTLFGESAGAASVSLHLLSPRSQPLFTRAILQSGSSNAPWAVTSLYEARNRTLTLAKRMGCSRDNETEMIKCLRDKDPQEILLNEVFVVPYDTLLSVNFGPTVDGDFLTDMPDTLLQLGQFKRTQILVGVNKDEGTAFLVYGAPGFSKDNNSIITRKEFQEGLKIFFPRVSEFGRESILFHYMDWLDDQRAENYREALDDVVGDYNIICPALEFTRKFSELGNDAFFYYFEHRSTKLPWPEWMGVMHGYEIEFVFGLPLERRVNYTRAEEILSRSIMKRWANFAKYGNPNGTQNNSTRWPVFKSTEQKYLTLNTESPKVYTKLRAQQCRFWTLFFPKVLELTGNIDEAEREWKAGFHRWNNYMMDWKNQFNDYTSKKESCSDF", "test": "biochemical", "conditions": "at 10 μM; Table 2 footnote b", "method": "(§6) Ellman’s protocol was followed to perform the anticholinesterasic activity. Briefly, the reaction was carried out in a final volume of 3 ml of a phosphate-buffered solution (0.1 M) at pH =8.0 containing (2.625 µl, 0.35 mM) of 5,5’-dithiobis-2-nitrobenzoic acid (DTNB), 40 µl 1% w/v Bovine Albumin Serum phosphate-buffered solution (BSA), (29 µl, 0.035 U/ml) of EeAChE or (60 µl, 0.05 U/ml) of eqBuChE, and 3 µl of tested compound, which were incubated for 10 min. Then, the acetylthiocholine iodide or butyrylthiocholine was added, and the reaction was incubated for additional 15 min. The activity in absence of compound was used as control."}, "[10]": {"target": "EeAChE (Electrophorus electricus, UniProt O42275)", "sequence (O42275 24-633)": "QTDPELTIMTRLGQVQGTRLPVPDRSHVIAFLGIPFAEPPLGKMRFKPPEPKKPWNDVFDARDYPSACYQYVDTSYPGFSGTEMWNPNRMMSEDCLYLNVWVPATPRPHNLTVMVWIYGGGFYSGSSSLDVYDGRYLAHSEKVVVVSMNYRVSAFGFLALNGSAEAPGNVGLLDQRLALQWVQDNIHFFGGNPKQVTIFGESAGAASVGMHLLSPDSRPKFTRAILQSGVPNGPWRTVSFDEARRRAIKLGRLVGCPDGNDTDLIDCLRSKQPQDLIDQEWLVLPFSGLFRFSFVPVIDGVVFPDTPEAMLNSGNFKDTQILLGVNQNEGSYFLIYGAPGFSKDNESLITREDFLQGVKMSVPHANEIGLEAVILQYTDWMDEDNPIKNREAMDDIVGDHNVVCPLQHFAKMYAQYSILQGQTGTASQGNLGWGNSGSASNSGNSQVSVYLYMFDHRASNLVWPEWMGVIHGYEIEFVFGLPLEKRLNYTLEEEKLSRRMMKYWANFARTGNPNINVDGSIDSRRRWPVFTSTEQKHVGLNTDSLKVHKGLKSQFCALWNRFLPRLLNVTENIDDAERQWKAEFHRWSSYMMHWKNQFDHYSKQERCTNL", "test": "biochemical", "method": "as §6"}, "[11]": {"test_system": "SH-SY5Y cells", "test": "Toxicity of compounds on SH-SY5Y cells (MTT)", "type": "cell-based", "conditions": "at 10 µM", "method": "as §1"}}, "note": "Values joined by “and” are separate entries in the source; they are usually repeats but may differ in a detail not shown here. Equal values may be shown once."}
{"smiles": "O=c1cc(CO)occ1O", "note": "[KA, kojic acid, reference compound]", "values": [{"measurement": "Aβ1–40 (%) neuroprotection", "setting": "[1]; compound 3 µM", "result": "65.11 ± 0.20", "unit": "%"}, {"measurement": "ORAC", "setting": "[2]", "result": "2.51 TE and 2.51 ± 0.17 TE"}, {"measurement": "Aβ1–40 (%) neuroprotection", "setting": "[3]", "result": "51.56 ± 0.18", "unit": "%"}, {"measurement": "O/R (%) neuroprotection", "setting": "[4]; compound 3 µM", "result": "np"}, {"measurement": "O/R (%) neuroprotection", "setting": "[5]", "result": "np"}]}
{"smiles": "COc1cccc(C2c3oc(CO)cc(=O)c3Oc3nc4c(c(N)c32)CCCC4)c1", "note": "(centres unmarked) [KT2d, 11-amino-2-(hydroxymethyl)-12-(3-methoxyphenyl)-7,9,10,12-tetrahydropyrano [2',3':5,6] pyrano[2,3-b]quinolin-4(8H)-one]", "values": [{"measurement": "neuroprotection against Aβ 1–40", "setting": "[1]; at 3 µM and 10 µM", "result": "significant and similar neuroprotection"}, {"measurement": "Aβ1–40 (%) neuroprotection", "setting": "[1]; compound 3 µM", "result": "42.92 ± 0.20", "unit": "%"}, {"measurement": "Aβ1–40 (%) neuroprotection", "setting": "[1]; compound 10 µM", "result": "41.19 ± 0.18", "unit": "%"}, {"measurement": "IC50", "setting": "[6]", "result": "4.52 ± 0.24", "unit": "µM"}, {"measurement": "ORAC", "setting": "[2]", "result": 4.79, "unit": "TE"}, {"measurement": "ORAC", "setting": "[2]; listed as 2d", "result": "4.79±0.39", "unit": "TE"}, {"measurement": "fold more potent than FA (ORAC)", "setting": "[2]; vs ferulic acid", "result": 1.3, "unit": "fold"}, {"measurement": "viability at 1 µM", "setting": "[7]; 1 µM", "result": "101 ± 2.5", "unit": "%"}, {"measurement": "viability at 3 µM", "setting": "[7]; 3 µM", "result": "98 ± 4.1", "unit": "%"}, {"measurement": "viability at 10 µM", "setting": "[7]; 10 µM", "result": "102 ± 3.2", "unit": "%"}, {"measurement": "viability at 30 µM", "setting": "[7]; 30 µM", "result": "102 ± 1.8", "unit": "%"}, {"measurement": "viability at 100 µM", "setting": "[7]; 100 µM", "result": "99 ± 1.1", "unit": "%"}, {"measurement": "viability at 300 µM", "setting": "[7]; 300 µM", "result": "87.2 ± 6.1", "unit": "%"}, {"measurement": "viability at 1000 µM", "setting": "[7]; 1000 µM", "result": "65.5 ± 1.3", "unit": "%"}, {"measurement": "fold less toxic than tacrine (HepG2)", "setting": "[8]", "result": "six-fold less-hepatotoxic than tacrine"}, {"measurement": "inhibition at 10 µM", "setting": "[9]", "result": "< 50", "unit": "%"}, {"measurement": "IC50", "setting": "[10]; mean ± SEM", "result": "640 ± 60", "unit": "nM"}, {"measurement": "fold less active than tacrine (EeAChE)", "setting": "[10]; ratio of IC50 values vs tacrine", "result": "approximately 20 fold"}, {"measurement": "O/R (%) neuroprotection", "setting": "[4]; compound 3 µM", "result": "24.35 ± 0.05", "unit": "%"}, {"measurement": "O/R (%) neuroprotection", "setting": "[4]; compound 10 µM", "result": "12.53 ± 0.09", "unit": "%"}, {"measurement": "toxicity for SH-SY5Y cells", "setting": "[11]", "result": "nontoxic"}]}
